For test [1], the system named is exploratory locomotor activity in rats. Kind of test: Inhibition of exploratory locomotor activity, rat PO (McLean et al. screen). The format is in vivo. Particulars: read-out: Inh. Loc. Act. (rat PO) (ED50). The source says:
(§1) All compounds shown in the following Table 1 are active in laboratory tests that have been useful as predictors of antipsychotic efficacy (e.g., treatment of schizophrenia). Among these tests described by J. R. McLean, R. B. Parker, and L. L. Coughenour in Pharmacol. Biochem. Behav. 1978 (8) 97, is one which screens for compounds that decrease exploratory locomotor activity in mice and rats without causing ataxia. […] All known antipsychotic agents are active in this test. Our compounds are also active at doses as low as 0.35 mg/kg.

Test [2] concerns exploratory locomotor activity in mice. Put plainly: Inhibition of exploratory locomotor activity, mouse IP (McLean et al. screen). The format is in vivo. Particulars: read-out: Inh. Loc. Act. (mouse IP) (ED50).
Excerpt: as §1

The subject of a further test is synthesis of dopamine. Put plainly: Dopamine synthesis in rats treated with gamma-butyrolactone (GBL). The format is in vivo, rat.

Molecules are shown by their SMILES. Some results are limits rather than exact numbers.

Turning to `O=c1ccoc2cc(OCCCN3CC=C(c4ccccc4)CC3)ccc12` [compound 1, 7-[3-(4-Phenyl-1,2,3,6-tetrahydro-1-pyridyl)propoxy]-4H-1-benzopyran-4-one], the figures for the 50% effective dose (ED50) in test [1] and in test [2] were 29.5 mg/kg and 0.7 mg/kg, respectively. For the same compound, the synthesis of dopamine result in the test on synthesis of dopamine was “inhibition of the synthesis of dopamine”.
As for `O=c1ccoc2cc(OCCCN3CCN(c4ccccc4)CC3)ccc12` [compound 2, 7-[3-(4-phenylpiperazinyl)propoxy]-4H-1-benzopyran-4-one], the values for the ED50 in test [1] and in test [2] were 4.3 mg/kg and 2.4 mg/kg, respectively.
Consider `O=c1ccoc2cc(OCCCN3CCN(c4ccc(Cl)cc4)CC3)ccc12` [compound 3], for which the ED50 in test [1] was 18.6 mg/kg; in test [2], 11.1 mg/kg.
With `Cc1cccc(N2CCN(CCCOc3ccc4c(=O)ccoc4c3)CC2)c1C` [compound 4], the median effective dose (ED50) turned out to be 13.2 mg/kg in test [1] and 11.2 mg/kg in test [2].
For the compound `O=c1ccoc2cc(OCCCN3CCN(c4cccc(Cl)c4)CC3)ccc12` [compound 5], the results for the ED50 in test [1] and in test [2] were 8.5 mg/kg and 7.7 mg/kg, respectively.
The corresponding values for `COc1ccccc1N1CCN(CCCOc2ccc3c(=O)ccoc3c2)CC1` [compound 6] are greater than 30 mg/kg and 7.7 mg/kg.
Turning to `O=c1ccoc2cc(OCCCN3CCC(c4ccccc4)CC3)ccc12` [compound 7, 7-[3-(4-Phenyl-1-piperidinyl)propoxy]-4H-1-benzopyran-4-one], the median effective dose (ED50) in test [1] was greater than 30 mg/kg; in test [2], 14.8 mg/kg.
For `Cc1ccccc1N1CCN(CCCOc2ccc3c(=O)ccoc3c2)CC1` [compound 8], the values for the ED50 in test [1] and in test [2] were 30 mg/kg and 2 mg/kg, respectively.
With `Cc1cccc(N2CCN(CCCOc3ccc4c(=O)ccoc4c3)CC2)c1` [compound 9], the ED50 in test [1] amounted to 4.8 mg/kg; in test [2], 5.4 mg/kg.
With `Cc1ccc(N2CCN(CCCOc3ccc4c(=O)ccoc4c3)CC2)cc1` [compound 10], the ED50 in test [1] came to 22.3 mg/kg; in test [2] it was 6.1 mg/kg.
For `O=c1ccoc2cc(OCCCN3CCN(c4ccc(F)cc4)CC3)ccc12` [compound 11], the ED50 in test [1] was 7.1 mg/kg; in test [2], 7 mg/kg.
The corresponding values for `O=c1ccoc2cc(OCCCN3CCN(c4ccccn4)CC3)ccc12` [compound 12] are 1.7 mg/kg and 5 to 6 mg/kg.
Regarding `O=c1ccoc2cc(OCCCN3CCN(c4ccccc4Cl)CC3)ccc12` [compound 13, 7-[3-(4-(2-Chlorophenyl)-1-piperazinyl)propoxy]-4H-1-benzopyran-4-one], the ED50 in test [2] was greater than 30 mg/kg.
Take `O=c1ccoc2cc(OCCCN3CCN(c4ccc(Cl)c(Cl)c4)CC3)ccc12` [compound 14]: the results for the median effective dose (ED50) in test [1] and in test [2] were 17.8 mg/kg and 14 to 15 mg/kg, respectively.
For the compound `COc1ccc(N2CCN(CCCOc3ccc4c(=O)ccoc4c3)CC2)cc1` [compound 15], the figures for the ED50 in test [1] and in test [2] were greater than 30 mg/kg and 30 mg/kg, respectively.
Regarding `O=c1ccoc2cc(OCCCN3CCN(c4cccc(O)c4)CC3)ccc12` [compound 16], in test [2], the ED50 is greater than 30 mg/kg.
Take `Cc1ccc(N2CCN(CCCOc3ccc4c(=O)ccoc4c3)CC2)cc1C` [compound 17]: the values for the median effective dose (ED50) in test [1] and in test [2] were 7.3 mg/kg and 3 mg/kg, respectively.
Consider `O=c1ccoc2cccc(OCCCN3CCN(c4ccccc4)CC3)c12` [compound 18, 5-3-(4-phenyl-1-piperazinyl)propoxyl-4H-1-benzopyran-4-one], for which the ED50 in test [1] was found to be 15.6 mg/kg; in test [2] it was 13.3 mg/kg.
The corresponding values for `O=c1ccoc2ccc(OCCCCN3CCN(c4ccccc4)CC3)cc12` [compound 19, 6-[4-(4-phenyl-1-piperazinyl)butoxy]-4H-1-benzopyran-4-one] are 1.5 mg/kg and 3 mg/kg.
`O=c1ccoc2cc(OCCCCN3CCN(c4ccccc4)CC3)ccc12` [compound 20, 7-[4-(4-Phenyl-1-piperazinyl)butoxy]-4H-1-benzopyran-4-one]: the ED50 in test [1] amounted to 1.9 mg/kg; in test [2] it was 0.35 mg/kg.
As to `O=c1ccoc2cc(OCCCN3CCN(c4ncccn4)CC3)ccc12` [compound 21], the results for the median effective dose (ED50) in test [1] and in test [2] were greater than 30 mg/kg and 23.7 mg/kg, respectively.

The ED50 is the dose at which the effect has come halfway, by size or by number of responders.

Source of the values: patent US4678787A, “4H-1-benzopyran-4-ones and their sulfur containing analogs” (Warner-Lambert Company, priority 1985, dated 1987).
